Reference: US10131652B2, “Pyrimidinyloxy benzene derivatives as herbicides” (E. I. DU PONT DE NEMOURS AND COMPANY, priority 2014, dated 2018)

Legend:
Assay type in all cases: in vivo
[1] = system: ducksalad (Heteranthera limosa); test: Test C flooded paddy test plant response; conditions: Flood, 250 g ai/ha; scale of 0 to 100 where 0 is no effect and 100 is complete control; 13 to 15 days
Outline: (§1)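 Scale 0 (no effect) to 100 (complete control), assigned visually versus controls after 13–15 d greenhouse. Application: directly to paddy water, 3 cm flood depth kept constant, 2-leaf stage.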

[2] = system: barnyardgrass (Echinochloa crus-galli); test: Test C flooded paddy test plant response; conditions: Flood, 250 g ai/ha; scale of 0 to 100 where 0 is no effect and 100 is complete control; 13 to 15 days
Outline: as §1

[3] = system: small-flower umbrella sedge (Cyperus difformis); test: Test C flooded paddy test plant response; conditions: Flood, 250 g ai/ha; scale of 0 to 100 where 0 is no effect and 100 is complete control; 13 to 15 days
Outline: as §1

rice (Oryza sativa) = test: Test C flooded paddy test plant response; conditions: Flood, 250 g ai/ha; scale of 0 to 100 where 0 is no effect and 100 is complete control; 13 to 15 days
Outline: as §1

[4] = system: velvetleaf (Abutilon theophrasti); test: Test B pre-/postemergence plant response
Outline: (§2)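 Ratings reflect visual injury versus untreated controls, from 0 for no effect to 100 for complete control, assessed roughly 10 days after treatment. Formulation: non-phytotoxic solvent mix with surfactant; pre- and postemergence sprays on plants grown in loam soil and sand.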

corn (Zea mays) = test: Test B pre-/postemergence plant response
Outline: as §2

[5] = system: giant foxtail (Setaria faberii); test: Test B pre-/postemergence plant response
Outline: as §2

[6] = system: barnyardgrass (Echinochloa crus-galli); test: Test B pre-/postemergence plant response
Outline: as §2

[7] = system: pigweed (Amaranthus retroflexus); test: Test B pre-/postemergence plant response
Outline: as §2

[8] = system: morningglory (Ipomoea spp.); test: Test B pre-/postemergence plant response
Outline: as §2

[9] = system: wheat (Triticum aestivum); test: Test B pre-/postemergence plant response
Outline: as §2

[10] = system: large (Lg) crabgrass (Digitaria sanguinalis); test: Test B pre-/postemergence plant response
Outline: as §2

[11] = 125 g ai/ha, postemergence, 0 to 100 scale, 0 no effect, 100 complete control
[12] = Postemergence, 500 g ai/ha, 0 to 100 scale (0 no effect, 100 complete control)
[13] = Preemergence, 125 g ai/ha, 0 to 100 scale (0 no effect, 100 complete control)
[14] = Preemergence, 500 g ai/ha, 0 to 100 scale where 0 is no effect and 100 is complete control
[15] = 500 g ai/ha, postemergence, 0 to 100 scale, 0 no effect, 100 complete control

Row | Structure (SMILES) | Ducksalad plant response rating [1] | Barnyardgrass plant response rating [2] | Sedge, Umbrella plant response rating [3] | Rice plant response rating (rice (Oryza sativa)) | Plant response rating, Velvetleaf [4, 11] | Velvetleaf plant response rating [4, 13] | Plant response rating, Velvetleaf [4, 14] | Plant response rating, Corn (corn (Zea mays); [11]) | Corn plant response rating (corn (Zea mays); [13]) | Plant response rating, Corn (corn (Zea mays); [14]) | Plant response rating, Foxtail, Giant [5, 11] | Foxtail, Giant plant response rating [5, 13] | Plant response rating, Foxtail, Giant [5, 14] | Plant response rating, Barnyardgrass [6, 11] | Barnyardgrass plant response rating [6, 13] | Plant response rating, Barnyardgrass [6, 14] | Plant response rating, Pigweed [7, 14] | Plant response rating, Morningglory [8, 14] | Plant response rating, Wheat [9, 14] | Plant response rating, Crabgrass, Large [10, 14] | further results
1 | Cc1noc(C)c1-c1c(C#N)cccc1Oc1ncc(Cl)cn1 [Compound 134] | 40 | 0 | 75 | 0 | 40 | 40 | 100 | 10 | 20 | 60 | 10 | 90 | 100 | 20 | 70 | 90 | 100 | 80 | 20 | 100 | Plant response rating, Velvetleaf [4, 12]: 90; Plant response rating, Corn (corn (Zea mays); [12]): 80; Plant response rating, Foxtail, Giant [5, 12]: 90; Plant response rating, Barnyardgrass [6, 12]: 90; Plant response rating, Pigweed [7, 11]: 60; Plant response rating, Pigweed [7, 12]: 100; Pigweed plant response rating [7, 13]: 100; Plant response rating, Morningglory [8, 11]: 10; Plant response rating, Morningglory [8, 12]: 90; Morningglory plant response rating [8, 13]: 10; Plant response rating, Wheat [9, 11]: 10; Plant response rating, Wheat [9, 12]: 30; Wheat plant response rating [9, 13]: 20; Plant response rating, Crabgrass, Large [10, 11]: 10; Plant response rating, Crabgrass, Large [10, 12]: 100; Crabgrass, Large plant response rating [10, 13]: 100
2 | Clc1ccc(-c2c(Br)cccc2Oc2ncc(Cl)cn2)nc1 [Compound 135] | 0 | 0 | 0 | 0 | 40 | 20 | 60 | 10 | 0 | 0 | 10 | 60 | 100 | 10 | 10 | 60 | 100 | 10 | 0 | 100 | Plant response rating, Velvetleaf [4, 12]: 80; Plant response rating, Corn (corn (Zea mays); [12]): 30; Plant response rating, Foxtail, Giant [5, 12]: 60; Plant response rating, Barnyardgrass [6, 12]: 40; Plant response rating, Pigweed [7, 11]: 100; Plant response rating, Pigweed [7, 12]: 100; Pigweed plant response rating [7, 13]: 90; Plant response rating, Morningglory [8, 11]: 20; Plant response rating, Morningglory [8, 12]: 50; Morningglory plant response rating [8, 13]: 0; Plant response rating, Wheat [9, 11]: 0; Plant response rating, Wheat [9, 12]: 10; Wheat plant response rating [9, 13]: 0; Plant response rating, Crabgrass, Large [10, 11]: 10; Plant response rating, Crabgrass, Large [10, 12]: 50; Crabgrass, Large plant response rating [10, 13]: 80
3 | Cn1nc(C(F)(F)F)cc1-c1c(C#N)cccc1Oc1ncc(Cl)cn1 [Compound 136] | 40 | 0 | 40 | 0 | – | – | 100 | – | – | 40 | – | – | 100 | – | – | 100 | 100 | 90 | 30 | 100 | Plant response rating, Velvetleaf [4, 12]: 100; Plant response rating, Corn (corn (Zea mays); [12]): 70; Plant response rating, Foxtail, Giant [5, 12]: 80; Plant response rating, Barnyardgrass [6, 12]: 90; Plant response rating, Pigweed [7, 12]: 100; Plant response rating, Morningglory [8, 12]: 90; Plant response rating, Wheat [9, 12]: 40; Plant response rating, Crabgrass, Large [10, 12]: 90
4 | Clc1cnc(Oc2ccccc2-c2nccs2)nc1 [Compound 199] | 0 | 0 | 80 | 0 | 0 | 0 | 10 | 0 | 0 | 0 | 0 | 0 | 0 | 0 | 0 | 0 | 30 | 0 | 0 | 10 | Plant response rating, Velvetleaf [4, 12]: 10; Plant response rating, Corn (corn (Zea mays); [12]): 0; Plant response rating, Foxtail, Giant [5, 12]: 0; Plant response rating, Barnyardgrass [6, 12]: 0; Plant response rating, Pigweed [7, 11]: 10; Plant response rating, Pigweed [7, 12]: 30; Pigweed plant response rating [7, 13]: 0; Plant response rating, Morningglory [8, 11]: 0; Plant response rating, Morningglory [8, 12]: 10; Morningglory plant response rating [8, 13]: 0; Plant response rating, Wheat [9, 11]: 0; Plant response rating, Wheat [9, 12]: 0; Wheat plant response rating [9, 13]: 0; Plant response rating, Crabgrass, Large [10, 11]: 0; Plant response rating, Crabgrass, Large [10, 12]: 10; Crabgrass, Large plant response rating [10, 13]: 0
5 | O=[N+]([O-])c1cc(Cl)cnc1-c1ccccc1Oc1ncc(Cl)cn1 [Compound 201] | 0 | 0 | 0 | 0 | 0 | 0 | 0 | 0 | 0 | 0 | 0 | 0 | 0 | 0 | 0 | 0 | 0 | 0 | 0 | 0 | Plant response rating, Velvetleaf [4, 15]: 0; Plant response rating, Corn (corn (Zea mays); [15]): 0; Plant response rating, Foxtail, Giant [5, 15]: 0; Plant response rating, Barnyardgrass [6, 15]: 0; Plant response rating, Pigweed [7, 11]: 0; Plant response rating, Pigweed [7, 15]: 0; Pigweed plant response rating [7, 13]: 0; Plant response rating, Morningglory [8, 11]: 0; Plant response rating, Morningglory [8, 15]: 0; Morningglory plant response rating [8, 13]: 0; Plant response rating, Wheat [9, 11]: 0; Plant response rating, Wheat [9, 15]: 0; Wheat plant response rating [9, 13]: 0; Plant response rating, Crabgrass, Large [10, 11]: 0; Plant response rating, Crabgrass, Large [10, 15]: 0; Crabgrass, Large plant response rating [10, 13]: 0
6 | N#Cc1cccc(Oc2ncc(Cl)cn2)c1-c1ccc(Cl)cn1 [Compound 202] | 80 | 0 | 80 | 0 | 10 | 0 | 60 | 0 | 0 | 0 | 30 | 70 | 100 | 10 | 10 | 80 | 100 | 20 | 20 | 100 | Plant response rating, Velvetleaf [4, 15]: 30; Plant response rating, Corn (corn (Zea mays); [15]): 30; Plant response rating, Foxtail, Giant [5, 15]: 80; Plant response rating, Barnyardgrass [6, 15]: 40; Plant response rating, Pigweed [7, 11]: 90; Plant response rating, Pigweed [7, 15]: 100; Pigweed plant response rating [7, 13]: 100; Plant response rating, Morningglory [8, 11]: 10; Plant response rating, Morningglory [8, 15]: 40; Morningglory plant response rating [8, 13]: 0; Plant response rating, Wheat [9, 11]: 0; Plant response rating, Wheat [9, 15]: 0; Wheat plant response rating [9, 13]: 0; Plant response rating, Crabgrass, Large [10, 11]: 10; Plant response rating, Crabgrass, Large [10, 15]: 70; Crabgrass, Large plant response rating [10, 13]: 90
